# Measurements reported in patent publication US20250177412A1, “SMALL-MOLECULE INHIBITORS TARGETING THE BOB1/OCT1 INTERFACE” (NANTES UNIVERSITE, priority 2022, published 2025).
# How the values were obtained:
# [1] = biological target: OCT1 (endogenous) + BOB1 (transfected) (Homo sapiens) (UniProt P14859+Q16633); test: cell_activity; details: BOB1 stimulation over endogenous OCT1 alone, HEK293 luciferase; attenuated by compounds 004, 005, 006 at 10 uM
# [2] = test system: BOB1/OCT1-mediated transcription; test: Luciferase reporter assay (transient transfection, 6xPORE-luc); format: cell-based, human; details: 10 μM in the culture medium
# Protocol: FIGS. 1A-C are a combination of graphs showing that compound 005 inhibits BOB1/OCT1-mediated transcription in vitro. HEC293Ea1 cells, known to express endogenous OCT1, were co-transfected with […] reporter, pEV-OBF1 (BOB1) effector, and pCMV-β-gal calibrator plasmids. Luciferase and β-galactosidase activities were measured 48 hours after transfection. The 100% luciferase activity was set as activity in presence of vehicle (10 μM DMSO). […] All experiments are performed at least in triplicates. Bars indicate the mean±SEM. * P<0.05, ** P<0.01, *** P<0.001, **** P<0.0001.
# The HEK293E1a cells were seeded at density 1.2×10^4 per well on 48-well plate in DMEM medium containing 10% fetal calf serum. After 24 hours cells were transfected with plasmid mix (300 ng/well) containing specified amounts of the p6×PORE-luc reporter, pEV-OBF1 and pCG-Oct1 effector, pBluescript II KS+ carrier, and pCMV-βgal (for standardization) as previously described. The transfections were carried out in three biological replicates, using Polyethylenimine (PEI 25K, Polysciences Inc.) at the ratio 2:1 to DNA. After 48 hours, cells were washed with PBS, lysed, and measured for luciferase activity, using the Bright-Glo luciferase assay system (Promega), and for β-galactosidase activity in a standard assay.
# BOB1 has been described as a coactivator acting in cooperation with the POU-domain proteins OCT1 and OCT2 bound to distinct DNA-motifs either in monomeric or dimeric configurations. […] As an initial functional assay, we examined the ability of the compounds according to the present invention to affect BOB1-OCT1-PORE-mediated transcriptional activation in transient transfection luciferase assay. To this end, we made use of previously generated 6×PORE-luc and reporter plasmid, in which hexamers of the PORE were cloned upstream of the thymidine kinase (tk) minimal promoter and luciferase gene. […] Furthermore, the addition of a plasmid expressing exogenous OCT1 exerted an inhibitory effect on both basal and BOB1-mediated transcription (data not shown). This observation is likely due to the fact that HEK293 cells, like all other mammalian cell types, express OCT1, and further addition of exogenous OCT1 in these cells shifts the BOB1/OCT1 equilibrium out of optimal range, resulting in squelching effect, and in our experimental setup, in about 3-fold stimulation, as compared to that by endogenous OCT1 alone (FIG. 1A). […] Compound 005 was selected for further detailed investigation.
# Chain of OCT1 (endogenous) + BOB1 (transfected) (Homo sapiens) (P14859 other isoform, or with tags, fused parts or gaps, chain 1 of 2): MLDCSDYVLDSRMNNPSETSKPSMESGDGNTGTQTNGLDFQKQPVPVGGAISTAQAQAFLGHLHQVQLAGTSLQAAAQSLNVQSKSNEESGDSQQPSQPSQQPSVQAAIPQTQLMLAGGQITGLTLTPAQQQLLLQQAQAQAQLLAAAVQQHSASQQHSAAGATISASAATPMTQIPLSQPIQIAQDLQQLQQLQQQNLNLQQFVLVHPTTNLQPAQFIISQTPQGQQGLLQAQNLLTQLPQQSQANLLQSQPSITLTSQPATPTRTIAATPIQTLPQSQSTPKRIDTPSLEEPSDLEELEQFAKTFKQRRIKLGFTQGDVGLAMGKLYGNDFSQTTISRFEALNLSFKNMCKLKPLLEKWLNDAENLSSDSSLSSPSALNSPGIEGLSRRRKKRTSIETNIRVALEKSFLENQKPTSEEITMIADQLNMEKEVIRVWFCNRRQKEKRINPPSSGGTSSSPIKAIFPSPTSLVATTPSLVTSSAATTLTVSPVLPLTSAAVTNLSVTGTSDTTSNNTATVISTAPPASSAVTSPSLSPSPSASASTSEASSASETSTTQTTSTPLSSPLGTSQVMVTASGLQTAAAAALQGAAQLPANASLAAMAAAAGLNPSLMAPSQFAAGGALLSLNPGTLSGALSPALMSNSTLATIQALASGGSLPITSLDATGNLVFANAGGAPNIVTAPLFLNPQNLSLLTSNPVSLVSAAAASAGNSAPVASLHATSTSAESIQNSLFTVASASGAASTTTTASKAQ
# Chain of OCT1 (endogenous) + BOB1 (transfected) (Homo sapiens) (Q16633 whole entry, chain 2 of 2): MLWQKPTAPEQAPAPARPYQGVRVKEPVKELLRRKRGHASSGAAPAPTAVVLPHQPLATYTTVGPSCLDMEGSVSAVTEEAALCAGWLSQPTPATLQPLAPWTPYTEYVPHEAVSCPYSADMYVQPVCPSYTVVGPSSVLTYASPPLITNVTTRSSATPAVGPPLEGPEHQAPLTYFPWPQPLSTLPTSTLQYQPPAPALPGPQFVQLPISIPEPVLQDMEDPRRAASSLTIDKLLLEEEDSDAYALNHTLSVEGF
Molecule,activity [1] [fold],BOB1/OCT1-driven transcription (relative luciferase activity) [2]
6xPORE-tk-luc reporter,3,
"O=C(Nc1ccc(Br)c(C(F)(F)F)c1)C1CCCCN1c1nc(NCc2cccc(F)c2)nc(N(CCO)CCO)n1 (stereo not drawn) [compound 004, 1-(4-(bis(2-hydroxyethyl)amino)-6-((3-fluorobenzyl)amino)-1,3,5-triazin-2-yl)-N-(4-bromo-3-(trifluoromethyl)phenyl)piperidine-2-carboxamide]",,significantly attenuated
"O=C(O)CCNc1nc(NCCCc2ccc(F)cc2)nc(N2CCCC(C(=O)N3CCC(Cc4ccccc4)CC3)C2)n1 (stereo not drawn) [compound 006, 3-((4-(3-(4-benzylpiperidine-1-carbonyl)piperidin-1-yl)-6-((3-(4-fluorophenyl)propyl)amino)-1,3,5-triazin-2-yl)amino)propanoic acid]",,significantly attenuated
